Test results: ChEMBL document CHEMBL1201862, “PubChem BioAssay data set” (2004)
Calls of active or inactive are those of the source.

Assays:
Jurkat = assay: SAR Analysis of small molecule inhibitors of T-cell specific antigen receptor-induced NF-kB activation in a Jurkat cell line using a luminescence assay - Set 2. [Related pubchem assays (depositor defined):AID435003, AID435012, AID465]; type: functional, cell-based; conditions: Homo sapiens
HEK293 [1] = assay: cytotoxicity in HEK293T NF-kB-Luc cells, SAR follow-up, cytotoxicity control for NF-kB activator project, cell-based, resazurin fluorescence (AID 493251); type: functional; conditions: Homo sapiens
HEK293 [2] = assay: SAR Analysis of small molecule inhibitors of T-cell specific antigen receptor-induced NF-kB activation in a HEK-293T cell line using a luminescence assay - Set 2. [Related pubchem assays (depositor defined):AID435003, AID435012, AID489026]; type: functional, cell-based; conditions: Homo sapiens
Phospholipase D2 = Phospholipase D2 (Homo sapiens, UniProt O14939); assay: PLD2 inhibitor potency in cells, dose response (AID 602147); type: functional;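 note: cellular assay in HEK293 cells overexpressing GFP-tagged PLD2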
Phospholipase D1 = Phospholipase D1 (Homo sapiens, UniProt Q13393); assay: PLD1 inhibitor potency in cells, dose response (AID 602151); type: functional;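 note: cellular PLD1 assay in Calu-1 cells stimulated with PMA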
Sequence of Phospholipase D1 (Q13393 whole entry): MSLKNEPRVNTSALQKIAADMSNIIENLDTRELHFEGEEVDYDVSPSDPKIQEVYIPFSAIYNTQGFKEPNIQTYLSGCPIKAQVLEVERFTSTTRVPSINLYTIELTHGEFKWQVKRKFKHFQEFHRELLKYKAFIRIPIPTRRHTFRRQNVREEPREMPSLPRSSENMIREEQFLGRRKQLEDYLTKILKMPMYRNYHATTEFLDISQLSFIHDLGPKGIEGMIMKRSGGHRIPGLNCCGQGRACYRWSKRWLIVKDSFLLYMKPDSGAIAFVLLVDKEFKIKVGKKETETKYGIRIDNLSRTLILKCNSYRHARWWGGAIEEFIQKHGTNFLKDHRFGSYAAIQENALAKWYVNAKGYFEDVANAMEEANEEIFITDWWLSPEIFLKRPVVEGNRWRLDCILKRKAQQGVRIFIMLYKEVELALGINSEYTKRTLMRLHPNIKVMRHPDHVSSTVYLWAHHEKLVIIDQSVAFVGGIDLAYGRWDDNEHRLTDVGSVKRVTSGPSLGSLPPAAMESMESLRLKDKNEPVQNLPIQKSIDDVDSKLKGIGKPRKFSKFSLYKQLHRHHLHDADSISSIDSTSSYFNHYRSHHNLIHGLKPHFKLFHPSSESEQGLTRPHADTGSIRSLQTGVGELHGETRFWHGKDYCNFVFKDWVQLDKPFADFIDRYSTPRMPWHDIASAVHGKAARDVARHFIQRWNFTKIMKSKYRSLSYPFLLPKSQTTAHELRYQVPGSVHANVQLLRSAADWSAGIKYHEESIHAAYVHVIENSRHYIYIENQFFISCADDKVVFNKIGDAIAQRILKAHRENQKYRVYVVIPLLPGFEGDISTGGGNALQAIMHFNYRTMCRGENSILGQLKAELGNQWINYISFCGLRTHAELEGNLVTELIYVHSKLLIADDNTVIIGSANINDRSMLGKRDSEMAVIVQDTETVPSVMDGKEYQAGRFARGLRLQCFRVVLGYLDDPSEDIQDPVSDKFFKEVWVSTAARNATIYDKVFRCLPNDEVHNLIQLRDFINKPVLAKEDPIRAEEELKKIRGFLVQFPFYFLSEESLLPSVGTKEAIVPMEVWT

[3] = target: G-protein coupled receptor 35 (Homo sapiens, UniProt Q9HC97); assay: SAR Analysis for the identification of Selective Antagonists of ERK1/2 Activity in GPR35-Overexpressing U2OS Cells. [Related pubchem assays: 2079, 2058 ]; type: functional, cell-based
Sequence of G-protein coupled receptor 35 (Q9HC97 whole entry): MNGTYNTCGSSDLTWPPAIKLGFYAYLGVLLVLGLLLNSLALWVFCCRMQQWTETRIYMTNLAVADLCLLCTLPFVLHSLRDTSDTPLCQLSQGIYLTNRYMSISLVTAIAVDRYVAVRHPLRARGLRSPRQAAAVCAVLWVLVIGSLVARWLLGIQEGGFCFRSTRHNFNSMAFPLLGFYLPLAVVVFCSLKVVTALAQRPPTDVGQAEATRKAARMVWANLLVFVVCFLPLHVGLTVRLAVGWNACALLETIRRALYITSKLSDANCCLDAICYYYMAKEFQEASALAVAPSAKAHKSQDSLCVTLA

[4] = target: G-protein coupled receptor 55 (Homo sapiens, UniProt Q9Y2T6); assay: GPR55 antagonists, SAR follow-up, counter-screen for GPR35 antagonist project, imaging, image-based (AID 2397); type: functional
[5] = target: Tyrosine-protein phosphatase non-receptor type 7 (Homo sapiens, UniProt P35236); type: functional
Sequence of Tyrosine-protein phosphatase non-receptor type 7 (P35236 whole entry): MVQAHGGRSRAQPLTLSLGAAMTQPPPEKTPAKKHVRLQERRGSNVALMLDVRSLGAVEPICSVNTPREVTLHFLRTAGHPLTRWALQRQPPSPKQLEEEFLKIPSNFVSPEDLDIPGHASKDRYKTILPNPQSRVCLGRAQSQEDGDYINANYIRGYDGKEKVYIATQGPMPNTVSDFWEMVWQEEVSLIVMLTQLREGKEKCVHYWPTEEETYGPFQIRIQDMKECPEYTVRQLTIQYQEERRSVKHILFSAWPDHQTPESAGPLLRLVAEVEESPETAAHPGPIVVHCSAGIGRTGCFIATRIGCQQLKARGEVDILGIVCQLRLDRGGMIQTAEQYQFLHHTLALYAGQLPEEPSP

[6] = target: T1, Dual specificity protein phosphatase 6 (Rattus norvegicus, UniProt Q64346)
T1 sequence (Q64346 whole entry): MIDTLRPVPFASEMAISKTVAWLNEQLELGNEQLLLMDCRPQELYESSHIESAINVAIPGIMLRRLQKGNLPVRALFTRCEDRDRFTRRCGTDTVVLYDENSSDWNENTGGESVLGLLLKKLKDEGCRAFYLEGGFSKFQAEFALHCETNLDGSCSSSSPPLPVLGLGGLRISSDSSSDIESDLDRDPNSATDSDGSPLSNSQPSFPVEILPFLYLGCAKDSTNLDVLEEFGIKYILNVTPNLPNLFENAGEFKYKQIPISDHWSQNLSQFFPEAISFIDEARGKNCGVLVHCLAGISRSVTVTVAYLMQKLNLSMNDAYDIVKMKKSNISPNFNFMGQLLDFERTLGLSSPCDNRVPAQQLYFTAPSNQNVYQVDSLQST

[7] = target: Glyceraldehyde-3-phosphate dehydrogenase (Homo sapiens, UniProt P04406)
Sequence of Glyceraldehyde-3-phosphate dehydrogenase (P04406 whole entry): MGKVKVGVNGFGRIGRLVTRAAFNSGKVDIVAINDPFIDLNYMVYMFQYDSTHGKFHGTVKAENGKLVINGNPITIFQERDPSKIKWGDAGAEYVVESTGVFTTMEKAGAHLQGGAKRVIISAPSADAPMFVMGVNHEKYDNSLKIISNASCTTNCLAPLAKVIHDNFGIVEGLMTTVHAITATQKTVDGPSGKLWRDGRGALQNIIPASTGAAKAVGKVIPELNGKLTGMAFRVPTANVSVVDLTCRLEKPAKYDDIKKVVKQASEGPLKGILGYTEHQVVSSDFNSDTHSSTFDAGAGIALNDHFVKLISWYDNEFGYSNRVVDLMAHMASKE

[8] = target: T1, Dual specificity protein phosphatase 6; type: functional
H9c2 = assay: cells; type: functional, cell-based; conditions: Rattus norvegicus, H9c2, Myocardium;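 note: confirmatory concentration-response retest of ultra-high-throughput screening hits for modulation of myocardial damage; cell death induced by hydrogen peroxide oxidative stress; compound pretreatment for 60 min then peroxide exposure for 2 h; potency is for protecting the cells against peroxide damage rather than for killing them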
HEK293 [9] = assay: inhibitors of LMP1-driven NF-kB reporter, dose response, cell-based, HEK293, luciferase, cherry-pick (AID 588343); type: functional; conditions: Homo sapiens
[10] = Counterscreen for AddAB inhibitors: absorbance-based bacterial cell-based high throughput dose response assay for inhibitors of bacterial viability. [Related pubchem assays (depositor defined):AID435030, AID449728, AID449731, AID488942, AID488955, AID488956]; type: functional
Exodeoxyribonuclease V = Exodeoxyribonuclease V (Escherichia coli (strain K12), UniProt P04993+P07648+P08394); assay: E. coli RecBCD inhibitors, dose response, counter-screen for AddAB inhibitor project, absorbance, V66 E. coli, mutant T4 phage (AID 492957); type: functional, cell-based, Escherichia coli str. K-12 substr. MG1655
Sequence of Exodeoxyribonuclease V (P04993 whole entry): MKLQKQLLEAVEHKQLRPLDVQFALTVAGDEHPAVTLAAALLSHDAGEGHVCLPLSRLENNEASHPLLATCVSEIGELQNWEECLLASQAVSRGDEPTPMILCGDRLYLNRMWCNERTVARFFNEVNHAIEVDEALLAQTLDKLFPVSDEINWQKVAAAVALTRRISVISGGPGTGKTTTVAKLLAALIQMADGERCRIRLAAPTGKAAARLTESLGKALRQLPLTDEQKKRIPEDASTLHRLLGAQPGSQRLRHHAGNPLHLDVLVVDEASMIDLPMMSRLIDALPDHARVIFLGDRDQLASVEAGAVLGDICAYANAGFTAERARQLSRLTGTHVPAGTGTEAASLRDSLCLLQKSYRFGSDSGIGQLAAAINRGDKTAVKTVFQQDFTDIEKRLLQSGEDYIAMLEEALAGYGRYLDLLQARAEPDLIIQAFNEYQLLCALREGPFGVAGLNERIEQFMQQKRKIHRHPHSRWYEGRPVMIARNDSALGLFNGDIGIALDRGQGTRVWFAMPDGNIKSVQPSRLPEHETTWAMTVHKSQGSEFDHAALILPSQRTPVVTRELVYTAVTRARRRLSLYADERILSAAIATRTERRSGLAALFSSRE
Sequence of Exodeoxyribonuclease V (P07648 whole entry): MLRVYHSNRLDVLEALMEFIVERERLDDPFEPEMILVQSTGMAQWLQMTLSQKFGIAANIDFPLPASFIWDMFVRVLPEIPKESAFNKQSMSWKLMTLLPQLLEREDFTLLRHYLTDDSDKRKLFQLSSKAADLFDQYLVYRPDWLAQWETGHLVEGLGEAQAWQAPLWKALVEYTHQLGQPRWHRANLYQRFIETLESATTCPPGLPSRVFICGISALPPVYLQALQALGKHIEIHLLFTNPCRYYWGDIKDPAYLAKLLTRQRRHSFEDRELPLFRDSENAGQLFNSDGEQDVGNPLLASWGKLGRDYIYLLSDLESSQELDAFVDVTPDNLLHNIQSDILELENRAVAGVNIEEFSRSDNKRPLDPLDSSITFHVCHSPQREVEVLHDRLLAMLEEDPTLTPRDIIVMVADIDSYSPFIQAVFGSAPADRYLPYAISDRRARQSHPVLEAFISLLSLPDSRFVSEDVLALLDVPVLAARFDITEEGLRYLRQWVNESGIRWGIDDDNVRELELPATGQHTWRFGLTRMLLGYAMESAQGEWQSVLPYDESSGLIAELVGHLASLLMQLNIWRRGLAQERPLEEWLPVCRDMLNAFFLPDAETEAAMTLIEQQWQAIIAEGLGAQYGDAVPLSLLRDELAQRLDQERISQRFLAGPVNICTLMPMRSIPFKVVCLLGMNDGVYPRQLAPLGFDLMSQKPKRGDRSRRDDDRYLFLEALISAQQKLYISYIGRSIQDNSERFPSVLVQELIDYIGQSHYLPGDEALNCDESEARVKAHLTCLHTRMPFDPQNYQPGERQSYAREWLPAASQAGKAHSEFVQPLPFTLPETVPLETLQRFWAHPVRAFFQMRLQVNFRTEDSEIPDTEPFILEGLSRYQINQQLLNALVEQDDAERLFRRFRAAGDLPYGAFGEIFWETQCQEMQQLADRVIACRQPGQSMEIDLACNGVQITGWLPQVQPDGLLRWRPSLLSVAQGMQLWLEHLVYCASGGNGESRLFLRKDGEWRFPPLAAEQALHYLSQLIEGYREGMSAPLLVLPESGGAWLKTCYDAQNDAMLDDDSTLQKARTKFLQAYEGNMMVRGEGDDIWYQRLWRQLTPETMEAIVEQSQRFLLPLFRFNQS
Sequence of Exodeoxyribonuclease V (P08394 whole entry): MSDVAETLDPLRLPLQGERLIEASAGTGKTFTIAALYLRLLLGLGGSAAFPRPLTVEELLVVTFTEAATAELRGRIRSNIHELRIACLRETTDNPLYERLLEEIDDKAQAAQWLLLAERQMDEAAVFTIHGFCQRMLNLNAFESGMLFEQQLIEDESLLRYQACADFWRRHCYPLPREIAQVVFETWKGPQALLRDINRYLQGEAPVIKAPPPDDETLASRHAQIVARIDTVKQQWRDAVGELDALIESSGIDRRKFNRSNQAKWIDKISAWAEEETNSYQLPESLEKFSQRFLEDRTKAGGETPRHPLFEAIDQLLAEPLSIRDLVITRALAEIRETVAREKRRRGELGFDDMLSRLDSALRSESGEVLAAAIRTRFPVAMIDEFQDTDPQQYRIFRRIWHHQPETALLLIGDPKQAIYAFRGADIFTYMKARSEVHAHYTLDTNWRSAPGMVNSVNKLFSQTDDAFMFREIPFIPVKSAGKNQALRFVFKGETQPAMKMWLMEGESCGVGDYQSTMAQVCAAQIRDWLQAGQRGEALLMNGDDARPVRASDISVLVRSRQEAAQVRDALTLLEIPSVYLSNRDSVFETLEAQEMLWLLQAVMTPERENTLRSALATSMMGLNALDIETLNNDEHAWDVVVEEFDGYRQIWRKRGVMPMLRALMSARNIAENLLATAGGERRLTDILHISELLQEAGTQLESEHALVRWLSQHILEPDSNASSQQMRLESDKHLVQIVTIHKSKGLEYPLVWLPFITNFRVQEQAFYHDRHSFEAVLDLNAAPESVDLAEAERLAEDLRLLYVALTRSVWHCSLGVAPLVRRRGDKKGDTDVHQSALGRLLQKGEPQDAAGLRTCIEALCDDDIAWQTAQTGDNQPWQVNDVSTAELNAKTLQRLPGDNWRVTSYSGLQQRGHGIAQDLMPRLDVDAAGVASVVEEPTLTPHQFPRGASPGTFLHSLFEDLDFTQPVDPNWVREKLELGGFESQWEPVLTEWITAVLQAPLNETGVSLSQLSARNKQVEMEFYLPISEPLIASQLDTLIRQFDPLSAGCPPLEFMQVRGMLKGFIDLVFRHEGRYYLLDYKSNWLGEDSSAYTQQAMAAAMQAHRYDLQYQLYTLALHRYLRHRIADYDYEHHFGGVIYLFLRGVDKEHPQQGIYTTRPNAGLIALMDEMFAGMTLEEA

[11] = target: T2, Microphthalmia-associated transcription factor (Homo sapiens, UniProt O75030); assay: TRPM1 promoter luciferase signal decrease, dose response, MITF inhibitor project, cell-based, SK-MEL-5, cherry-picked, set 3 (AID 493073); type: functional
T2 sequence (O75030 whole entry): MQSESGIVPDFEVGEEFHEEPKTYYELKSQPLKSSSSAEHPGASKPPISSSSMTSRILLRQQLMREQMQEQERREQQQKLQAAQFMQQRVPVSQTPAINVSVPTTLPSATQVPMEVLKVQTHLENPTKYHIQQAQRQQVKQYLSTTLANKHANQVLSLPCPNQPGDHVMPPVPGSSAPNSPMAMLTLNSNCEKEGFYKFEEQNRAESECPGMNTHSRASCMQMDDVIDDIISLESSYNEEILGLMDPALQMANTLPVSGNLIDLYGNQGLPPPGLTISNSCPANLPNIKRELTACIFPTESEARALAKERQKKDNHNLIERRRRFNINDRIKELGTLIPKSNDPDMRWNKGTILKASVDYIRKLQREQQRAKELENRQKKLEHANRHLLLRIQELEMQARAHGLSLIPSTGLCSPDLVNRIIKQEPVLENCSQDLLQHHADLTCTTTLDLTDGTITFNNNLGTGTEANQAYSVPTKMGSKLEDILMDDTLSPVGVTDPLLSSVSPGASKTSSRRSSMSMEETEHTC

[12] = growth induction of Burl-1 ts yeast mutant, dose response, counter-screen for SUMOylation pathway inhibitor project, whole organism, S. cerevisiae, luminescence (AID 463199); type: functional
[13] = target: Serine/threonine-protein phosphatase (Candida dubliniensis (strain CD36 / CBS 7987 / NCPF 3949 / NRRLY-17841) (Yeast), UniProt B9W6M3); assay: Fluorescence Cell-Based Secondary Assay to Identify Inhibitors of Calcineurin. [Related pubchem assays (depositor defined):AID1979, AID2007]; type: functional
[14] = target: Lysine-specific demethylase 4A (Homo sapiens, UniProt O75164); assay: JMJD2A histone demethylase inhibitors, dose response, selectivity assay for GASC-1 inhibitor project, biochemical, DELFIA europium, cherry-picked samples (AID 488840)

SMILES: CC(=O)c1cccc(NC(=O)c2ccc([N+](=O)[O-])o2)c1
- IC50 (Jurkat): 27.6 µM (inactive)
- IC50 (HEK293 [1]): 69.3 µM (inactive)
- IC50 (HEK293 [2]): 37.1 µM (inactive)

SMILES: O=C(NCCN1CCC(C(=O)NCC2CC2)CC1)c1ccc2ccccc2c1
- IC50 (Phospholipase D2): 20 µM (active)
- IC50 (Phospholipase D1): 20 µM (active)

SMILES: O=C(Nc1ccc2nc(SCc3ccccc3)sc2c1)c1ccccc1C(=O)N1CCOCC1
- IC50 [3]: 4.58 µM (active)
- IC50 [4]: 12.3 µM (inactive)

SMILES: CCC(CC)c1nnc(NC(=O)Cc2cccs2)s1
- IC50 [5]: 88 µM (active)
- IC50 [6]: > 100 µM (inactive)
- IC50 [7]: 99.7 µM (active)
- IC50 [8]: > 100 µM (inactive)

SMILES: CCn1nc(C(=O)Nc2nc(-c3ccccn3)cs2)c2ccccc2c1=O
- IC50 (H9c2): 16.2 µM (active)
- AC50 (HEK293 [9]): 11.4 µM (active)

SMILES: O=C(Cc1ccc2c(c1)OCO2)NN=Cc1ccc([N+](=O)[O-])o1
- IC50 [10]: 21 µM (inactive)
- IC50 (Exodeoxyribonuclease V): > 39.5 µM (inactive)
- AC50 [11]: 8.55 µM (active)

SMILES: CCCCn1c(/N=C/c2ccc3c(c2)OCO3)nc2ccccc21
- AC50 [12]: 60 µM (active)

SMILES: O=C(Nc1nnc(SCc2ccc(Cl)cc2)s1)c1ccc2ccccc2n1
- EC50 [13]: > 285 µM (inactive)

SMILES: CN(C(=O)c1ccc(NC(=O)Cc2ccc(NC(=O)C3CCN(C(=O)C4CCC4)CC3)cc2)cc1)C1CC1
- AC50 [14]: > 60 µM (inactive)
